Experimental data taken from patent publication US20100183629A1, “ANTAGONISTS OF ENDOTHELIAL DIFFERENTIATION GENE SUBFAMILY 3 (EDG-3, S1P3) RECEPTORS FOR PREVENTION AND TREATMENT OF OCULAR DISORDERS” (ALCON RESEARCH, LTD., priority 2006, published 2010).

Molecular target: T1, Edg3 receptor (Homo sapiens, UniProt Q99500)
T1 construct: endogenous in cells; host or cells: cultured human trabecular meshwork (TM) cells
Test: PAI-1 levels (ELISA) in supernatants of treated human TM cell cultures, Edg3 receptor antagonism
Type: cell-based
Settings: human trabecular meshwork cell cultures, 24 hours
Procedure: FIG. 2A and FIG. 2B. Human trabecular meshwork cell cultures were treated with (open circles) or without (closed circles) the Edg3 receptor subtype antagonist CAY10444 in the presence of various amounts of the endogenous Edg receptor agonist S1P (FIG. 2A) or in the presence of various amounts of FTY720, a structural analog of SIP (FIG. 2B). Twenty-four hours later, the levels of the secreted PAI-1 protein were then determined by ELISA of supernatant aliquots from the treated cultures as cited in Example 2.
The effect of Edg3 receptor antagonism on expression of extracellular matrix-related proteins by cultured human trabecular meshwork cells is determined as follows. […] Levels of extracellular matrix-related proteins, such as fibronectin, plasminogen activator inhibitor I (PAI-1), collagens, fibrillin, vitronectin, laminin, thrombospondin I, proteoglycans, or integrins, are then measured in each cell culture group via standard enzyme-linked immunoabsorbent assays (ELISA). […]
An example of the effect of Edg3 receptor antagonism on PAI-1 levels in supernatants from treated human TM cell cultures is shown in FIG. 2A and FIG. 2B. […] Twenty-four hours later, the levels of the secreted PAI-1 protein were then determined by ELISA of supernatant aliquots from the treated cultures.

T1 sequence (Q99500 whole entry): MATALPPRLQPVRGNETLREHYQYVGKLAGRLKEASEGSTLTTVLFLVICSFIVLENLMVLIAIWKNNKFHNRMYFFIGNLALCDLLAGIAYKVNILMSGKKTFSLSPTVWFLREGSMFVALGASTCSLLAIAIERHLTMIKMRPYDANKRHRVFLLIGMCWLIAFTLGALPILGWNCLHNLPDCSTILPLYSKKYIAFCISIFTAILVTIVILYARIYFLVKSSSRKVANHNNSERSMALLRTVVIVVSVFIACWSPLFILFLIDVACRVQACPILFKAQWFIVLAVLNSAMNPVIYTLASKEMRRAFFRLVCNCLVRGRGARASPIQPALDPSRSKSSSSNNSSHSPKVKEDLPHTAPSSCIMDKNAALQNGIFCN

Structure (SMILES): CCCCCCCCCCCC1N[C@H](C(=O)O)CS1 (some centres unmarked) [CAY10444]
- antagonism of FTY720 effect on secreted PAI-1 protein level (various amounts of FTY720, ELISA of supernatant (FIG. 2B)): potently and efficaciously antagonized
- antagonism of S1P effect on secreted PAI-1 protein level (various amounts of S1P, ELISA of supernatant (FIG. 2A)): potently and efficaciously antagonized
